Columns and labels:
Assay in all cases: kinome screen (33PanQinase)
Format in all cases: biochemical
[1] = target: T1, MEKK2 (Homo sapiens, UniProt Q9Y2U5)
T1 construct: purchased Reaction Biology Europe GmbH (formerly ProQinase)
T1 sequence (Q9Y2U5 1-619): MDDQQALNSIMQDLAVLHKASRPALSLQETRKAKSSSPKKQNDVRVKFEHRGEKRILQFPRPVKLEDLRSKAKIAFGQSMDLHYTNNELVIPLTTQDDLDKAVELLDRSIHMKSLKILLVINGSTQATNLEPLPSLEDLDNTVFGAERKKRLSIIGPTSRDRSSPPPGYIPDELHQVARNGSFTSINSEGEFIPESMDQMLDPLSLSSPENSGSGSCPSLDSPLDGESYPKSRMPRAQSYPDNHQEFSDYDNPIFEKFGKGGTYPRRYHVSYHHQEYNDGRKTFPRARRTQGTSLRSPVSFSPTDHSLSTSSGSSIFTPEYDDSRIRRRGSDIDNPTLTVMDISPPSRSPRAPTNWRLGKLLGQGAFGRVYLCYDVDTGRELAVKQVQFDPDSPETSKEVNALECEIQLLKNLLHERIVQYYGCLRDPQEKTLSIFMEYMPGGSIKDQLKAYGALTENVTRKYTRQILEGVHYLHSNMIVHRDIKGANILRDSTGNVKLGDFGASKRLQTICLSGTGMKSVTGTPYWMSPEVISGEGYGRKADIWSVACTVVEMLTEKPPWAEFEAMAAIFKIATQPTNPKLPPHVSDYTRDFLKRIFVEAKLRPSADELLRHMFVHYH
Experimental: (§1) The Kinome Screening was performed by Reaction Biology Europe GmbH (http://reactionbiology.com; Freiburg i. Br., Germany).

[2] = target: T2, ACVRL1 (Homo sapiens, UniProt P37023)
T2 construct: purchased Reaction Biology Europe GmbH (formerly ProQinase)
T2 sequence (P37023 22-503): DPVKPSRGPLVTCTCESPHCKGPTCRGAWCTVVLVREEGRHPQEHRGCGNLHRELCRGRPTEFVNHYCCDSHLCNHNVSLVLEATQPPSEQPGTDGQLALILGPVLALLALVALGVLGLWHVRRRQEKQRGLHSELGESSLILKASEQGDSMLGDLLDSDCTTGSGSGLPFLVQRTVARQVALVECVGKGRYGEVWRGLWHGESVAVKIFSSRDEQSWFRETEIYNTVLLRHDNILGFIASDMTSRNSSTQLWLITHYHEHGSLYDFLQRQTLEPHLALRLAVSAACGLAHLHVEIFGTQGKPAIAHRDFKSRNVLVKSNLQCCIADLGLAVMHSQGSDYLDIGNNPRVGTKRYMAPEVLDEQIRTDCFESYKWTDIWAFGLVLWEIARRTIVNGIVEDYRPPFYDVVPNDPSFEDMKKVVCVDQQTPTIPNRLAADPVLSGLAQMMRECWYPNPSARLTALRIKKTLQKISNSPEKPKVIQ
Experimental: as §1

[3] = target: T3, MKK7 (Homo sapiens, UniProt O14733)
T3 construct: purchased Reaction Biology Europe GmbH (formerly ProQinase)
T3 sequence (O14733 1-419): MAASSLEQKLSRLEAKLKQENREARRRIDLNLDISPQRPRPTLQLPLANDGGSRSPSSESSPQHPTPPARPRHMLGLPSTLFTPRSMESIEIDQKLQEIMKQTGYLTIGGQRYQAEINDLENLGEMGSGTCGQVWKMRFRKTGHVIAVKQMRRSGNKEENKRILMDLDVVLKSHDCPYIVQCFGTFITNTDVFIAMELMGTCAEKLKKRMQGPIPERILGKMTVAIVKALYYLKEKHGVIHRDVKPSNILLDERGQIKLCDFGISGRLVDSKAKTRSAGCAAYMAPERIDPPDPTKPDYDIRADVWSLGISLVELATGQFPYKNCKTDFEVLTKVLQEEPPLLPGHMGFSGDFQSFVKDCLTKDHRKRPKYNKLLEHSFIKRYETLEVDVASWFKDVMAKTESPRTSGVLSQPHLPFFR
Experimental: as §1

[4] = target: T4, TRKB (Homo sapiens, UniProt Q16620)
T4 construct: purchased Reaction Biology Europe GmbH (formerly ProQinase)
T4 sequence (Q16620 32-822): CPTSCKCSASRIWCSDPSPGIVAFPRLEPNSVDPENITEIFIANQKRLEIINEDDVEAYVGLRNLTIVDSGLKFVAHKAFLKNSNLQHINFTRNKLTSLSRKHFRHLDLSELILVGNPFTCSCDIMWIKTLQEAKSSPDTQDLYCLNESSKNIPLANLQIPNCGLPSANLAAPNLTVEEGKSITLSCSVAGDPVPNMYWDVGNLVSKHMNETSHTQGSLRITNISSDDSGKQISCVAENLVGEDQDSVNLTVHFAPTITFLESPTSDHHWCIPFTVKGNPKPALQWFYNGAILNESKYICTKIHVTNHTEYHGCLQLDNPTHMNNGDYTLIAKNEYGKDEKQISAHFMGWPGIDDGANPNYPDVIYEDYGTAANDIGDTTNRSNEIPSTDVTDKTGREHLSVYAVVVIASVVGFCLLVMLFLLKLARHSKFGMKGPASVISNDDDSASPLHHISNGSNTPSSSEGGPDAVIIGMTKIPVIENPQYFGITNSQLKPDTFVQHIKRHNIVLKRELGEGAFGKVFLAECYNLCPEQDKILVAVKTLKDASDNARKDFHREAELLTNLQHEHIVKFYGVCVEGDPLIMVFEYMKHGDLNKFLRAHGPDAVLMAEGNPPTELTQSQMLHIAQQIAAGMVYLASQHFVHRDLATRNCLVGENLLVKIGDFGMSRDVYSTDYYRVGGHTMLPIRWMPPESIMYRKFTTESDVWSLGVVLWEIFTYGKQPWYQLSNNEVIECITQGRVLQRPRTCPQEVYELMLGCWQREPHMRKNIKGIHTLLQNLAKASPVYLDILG
Experimental: as §1

[5] = target: T5, NEK3 (Homo sapiens, UniProt P51956)
T5 construct: purchased Reaction Biology Europe GmbH (formerly ProQinase)
T5 sequence (P51956 1-506): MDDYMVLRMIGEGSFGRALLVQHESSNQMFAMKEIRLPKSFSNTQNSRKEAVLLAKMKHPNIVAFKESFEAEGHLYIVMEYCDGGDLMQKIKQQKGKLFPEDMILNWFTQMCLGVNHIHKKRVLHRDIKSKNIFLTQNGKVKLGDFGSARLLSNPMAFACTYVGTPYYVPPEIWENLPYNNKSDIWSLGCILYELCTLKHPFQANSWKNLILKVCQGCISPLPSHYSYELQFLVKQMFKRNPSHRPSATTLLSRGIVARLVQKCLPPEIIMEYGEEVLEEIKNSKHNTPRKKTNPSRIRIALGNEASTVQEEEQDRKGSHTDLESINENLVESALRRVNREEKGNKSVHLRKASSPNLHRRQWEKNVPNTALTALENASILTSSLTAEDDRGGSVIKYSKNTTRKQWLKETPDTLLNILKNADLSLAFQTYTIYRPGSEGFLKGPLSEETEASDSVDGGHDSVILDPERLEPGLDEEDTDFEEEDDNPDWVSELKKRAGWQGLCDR
Experimental: as §1

[6] = target: T6, CDK7/CycH/MAT1 (Homo sapiens, UniProt P50613)
T6 construct: purchased Reaction Biology Europe GmbH (formerly ProQinase)
T6 sequence (P50613 whole entry): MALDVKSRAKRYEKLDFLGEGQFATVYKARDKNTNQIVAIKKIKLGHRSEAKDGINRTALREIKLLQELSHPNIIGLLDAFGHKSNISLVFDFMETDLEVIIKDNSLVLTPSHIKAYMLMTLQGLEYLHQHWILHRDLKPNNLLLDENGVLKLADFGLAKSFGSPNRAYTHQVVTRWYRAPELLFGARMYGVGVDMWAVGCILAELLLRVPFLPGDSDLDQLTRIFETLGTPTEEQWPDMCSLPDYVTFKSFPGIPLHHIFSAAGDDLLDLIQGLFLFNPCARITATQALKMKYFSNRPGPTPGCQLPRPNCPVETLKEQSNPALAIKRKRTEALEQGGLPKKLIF
T6 sequence (P51946 whole entry partner): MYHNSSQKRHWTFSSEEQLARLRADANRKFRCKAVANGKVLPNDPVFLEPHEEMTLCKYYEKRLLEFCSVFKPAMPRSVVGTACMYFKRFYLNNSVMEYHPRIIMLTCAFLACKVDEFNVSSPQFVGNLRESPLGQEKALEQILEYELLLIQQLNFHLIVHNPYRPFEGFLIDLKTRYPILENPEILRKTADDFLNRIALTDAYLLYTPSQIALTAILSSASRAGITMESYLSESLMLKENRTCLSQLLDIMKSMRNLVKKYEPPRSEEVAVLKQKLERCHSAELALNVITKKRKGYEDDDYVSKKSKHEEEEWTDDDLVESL
T6 sequence (P51948 whole entry partner): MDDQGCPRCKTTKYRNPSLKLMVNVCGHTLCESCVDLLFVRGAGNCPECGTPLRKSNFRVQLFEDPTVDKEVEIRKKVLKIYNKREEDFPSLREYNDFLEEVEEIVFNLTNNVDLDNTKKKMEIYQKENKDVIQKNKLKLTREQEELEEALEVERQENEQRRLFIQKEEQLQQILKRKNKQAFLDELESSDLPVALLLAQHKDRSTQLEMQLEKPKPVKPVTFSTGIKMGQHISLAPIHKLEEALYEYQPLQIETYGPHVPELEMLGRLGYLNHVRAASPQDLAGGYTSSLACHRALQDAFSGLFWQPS
Experimental: as §1

[7] = target: T7, DDR2 (Homo sapiens, UniProt Q16832)
T7 construct: purchased Reaction Biology Europe GmbH (formerly ProQinase)
T7 sequence (Q16832 22-855): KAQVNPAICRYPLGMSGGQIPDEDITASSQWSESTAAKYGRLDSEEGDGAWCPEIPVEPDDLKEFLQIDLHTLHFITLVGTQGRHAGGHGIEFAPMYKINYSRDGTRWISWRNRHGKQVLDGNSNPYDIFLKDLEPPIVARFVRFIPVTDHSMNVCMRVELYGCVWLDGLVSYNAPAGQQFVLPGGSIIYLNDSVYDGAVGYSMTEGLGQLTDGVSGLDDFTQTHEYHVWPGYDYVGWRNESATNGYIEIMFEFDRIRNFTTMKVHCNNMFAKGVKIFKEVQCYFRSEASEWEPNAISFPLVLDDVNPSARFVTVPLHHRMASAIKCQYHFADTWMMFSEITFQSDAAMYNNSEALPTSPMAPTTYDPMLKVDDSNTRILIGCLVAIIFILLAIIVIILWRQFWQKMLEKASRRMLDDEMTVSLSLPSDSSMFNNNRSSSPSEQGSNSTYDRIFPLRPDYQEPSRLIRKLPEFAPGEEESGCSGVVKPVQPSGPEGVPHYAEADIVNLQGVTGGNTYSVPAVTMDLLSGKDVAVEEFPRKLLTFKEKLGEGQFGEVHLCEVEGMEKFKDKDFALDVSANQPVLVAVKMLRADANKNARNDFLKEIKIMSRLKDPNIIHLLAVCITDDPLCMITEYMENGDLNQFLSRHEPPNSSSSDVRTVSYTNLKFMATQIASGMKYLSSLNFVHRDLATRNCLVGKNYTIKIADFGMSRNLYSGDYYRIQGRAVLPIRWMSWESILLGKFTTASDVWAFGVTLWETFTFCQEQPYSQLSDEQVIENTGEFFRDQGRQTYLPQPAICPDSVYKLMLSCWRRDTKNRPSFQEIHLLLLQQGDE
Experimental: as §1

SMILES: COc1ccnc2[nH]cc(-c3cc(N)nc(N)c3)c12 [meriolin 16]
- residual kinase activity ([1]; 0.03 µM): 95 % of control
- residual kinase activity ([1]; 0.3 µM): 91 % of control
- residual kinase activity ([2]; 0.03 µM): 101 % of control
- residual kinase activity ([2]; 0.3 µM): 89 % of control
- residual kinase activity ([3]; 0.03 µM): 96 % of control
- residual kinase activity ([3]; 0.3 µM): 88 % of control
- residual kinase activity ([4]; 0.03 µM): 68 % of control
- residual kinase activity ([4]; 0.3 µM): 29 % of control
- residual kinase activity ([5]; 0.03 µM): 96 % of control
- residual kinase activity ([5]; 0.3 µM): 78 % of control
- residual kinase activity ([6]; 0.03 µM): 44 % of control
- residual kinase activity ([6]; 0.3 µM): 6 % of control
- residual kinase activity ([7]; 0.03 µM): 105 % of control
- residual kinase activity ([7]; 0.3 µM): 93 % of control

SMILES: c1ccc(CNc2cc(-c3c[nH]c4ncccc34)ccn2)cc1 [meriolin 36]
- residual kinase activity ([1]; 0.3 µM): 66 % of control
- residual kinase activity ([1]; 3 µM): 18 % of control
- residual kinase activity ([2]; 0.3 µM): 43 % of control
- residual kinase activity ([2]; 3 µM): 9 % of control
- residual kinase activity ([3]; 0.3 µM): 81 % of control
- residual kinase activity ([3]; 3 µM): 48 % of control
- residual kinase activity ([4]; 0.3 µM): 10 % of control
- residual kinase activity ([4]; 3 µM): 2 % of control
- residual kinase activity ([5]; 0.3 µM): 94 % of control
- residual kinase activity ([5]; 3 µM): 79 % of control
- residual kinase activity ([6]; 0.3 µM): 7 % of control
- residual kinase activity ([6]; 3 µM): 2 % of control
- residual kinase activity ([7]; 0.3 µM): 59 % of control
- residual kinase activity ([7]; 3 µM): 17 % of control

From paper PMC11167047 (Cell Death Discovery, 2024)
